Here are results for five molecules from ChEMBL document CHEMBL5726855, “Substituted benzylindazoles for use as Bub1 kinase inhibitors in the treatment of hyperproliferative diseases” (2019).

The target in the assay is Mitotic checkpoint serine/threonine-protein kinase BUB1 (Homo sapiens, UniProt O43683). As to the kind of experiment: To this end, 100-fold concentrated compound solutions (in DMSO) were previously prepared by serial dilution (1:3.4) of 2 mM stocks in a clear low volume 384-well source microtiter plate (Greiner Bio-One, Frickenhausen, Germany), from which 50 nl of compounds were transferred into a black low volume test microtiter plate from the same supplier. […] The resulting mixture (5 μl final volume) was incubated at 22° C. during 60 min., and the reaction was stopped by the addition of 5 μl of an aqueous EDTA-solution (50 mM EDTA, in 100 mM HEPES pH 7.5 and 0.2% (w/v) bovine serum albumin) which also contained the TR-FRET detection reagents (0.2 μM streptavidin-XL665 [Cisbio Bioassays, Codolet, France] and 1 nM anti-phosho-Serine antibody [Merck Millipore, cat. #35-001] and 0.4 nM LANCE EU-W1024 labeled anti-mouse IgG antibody [Perkin-Elmer, product no. AD0077, alternatively a Terbium-cryptate-labeled anti-mouse IgG antibody from Cisbio Bioassays can be used]). The stopped reaction mixture was further incubated 1 h at 22° C. in order to allow the formation of complexes between peptides and detection reagents. Subsequently, the amount of product was evaluated by measurement of the resonance energy transfer from the Eu-chelate-antlbody complex recognizing the Phosphoserlne residue to the streptavidin-XL665 bound to the biotin moiety of the peptide. […] IC50 values were calculated by fitting the normalized inhibition data to a 4-parameter logistic equation (Minimum, Maximum, IC50, Hill; Y=Max+(Min−Max)/(1+(X/IC50)Hill)) using a Bayer-proprietary analysis software.
Sequence of Mitotic checkpoint serine/threonine-protein kinase BUB1 (O43683 whole entry): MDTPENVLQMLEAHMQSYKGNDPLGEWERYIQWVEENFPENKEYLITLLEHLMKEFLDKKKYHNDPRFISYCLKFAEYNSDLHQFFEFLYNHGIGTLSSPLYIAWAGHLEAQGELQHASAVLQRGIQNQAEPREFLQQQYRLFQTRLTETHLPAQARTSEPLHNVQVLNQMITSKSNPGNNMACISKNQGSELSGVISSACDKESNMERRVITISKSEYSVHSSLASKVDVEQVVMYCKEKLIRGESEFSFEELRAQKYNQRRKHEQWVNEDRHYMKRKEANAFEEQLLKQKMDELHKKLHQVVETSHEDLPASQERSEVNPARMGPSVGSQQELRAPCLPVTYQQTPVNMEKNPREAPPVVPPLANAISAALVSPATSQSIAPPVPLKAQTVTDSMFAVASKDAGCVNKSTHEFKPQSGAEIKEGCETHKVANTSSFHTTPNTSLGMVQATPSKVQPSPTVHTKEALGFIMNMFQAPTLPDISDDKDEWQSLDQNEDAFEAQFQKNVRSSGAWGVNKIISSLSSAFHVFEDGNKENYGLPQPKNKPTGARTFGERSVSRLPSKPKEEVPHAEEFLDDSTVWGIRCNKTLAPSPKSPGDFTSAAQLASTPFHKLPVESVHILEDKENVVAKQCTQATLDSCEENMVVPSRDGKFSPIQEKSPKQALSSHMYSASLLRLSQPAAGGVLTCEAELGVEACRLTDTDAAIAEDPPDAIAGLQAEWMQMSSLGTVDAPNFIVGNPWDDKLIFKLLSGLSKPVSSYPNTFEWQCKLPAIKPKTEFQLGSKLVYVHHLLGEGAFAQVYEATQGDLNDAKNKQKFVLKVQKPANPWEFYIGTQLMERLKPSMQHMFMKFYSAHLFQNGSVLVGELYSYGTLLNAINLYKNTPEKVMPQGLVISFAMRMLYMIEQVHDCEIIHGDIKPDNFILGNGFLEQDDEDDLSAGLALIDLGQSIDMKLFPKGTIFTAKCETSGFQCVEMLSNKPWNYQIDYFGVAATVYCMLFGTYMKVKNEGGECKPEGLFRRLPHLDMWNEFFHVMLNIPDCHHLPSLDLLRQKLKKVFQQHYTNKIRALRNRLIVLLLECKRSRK
As a reminder, the IC50 is the midpoint of a concentration-inhibition curve. As to `CCOc1cc(F)c(Cn2nc(-c3ncc(OCCSC)c(Nc4ccncc4)n3)c3ccccc32)c(F)c1`, the IC50 is 14 nM.

As to `COc1cnc(-c2nn(Cc3c(F)c(F)c(OCC(F)(F)F)c(F)c3F)c3ccccc23)nc1N(Cc1c(F)c(F)c(OCC(F)(F)F)c(F)c1F)c1ccncc1`, the IC50 is 3200 nM.

In the case of `CCOc1cc(F)c(Cn2nc(-c3ncc(OCCOCCO)c(Nc4ccncc4)n3)c3ccccc32)c(F)c1`, the IC50 was 7.4 nM.

Regarding `COc1cnc(-c2nn(Cc3ccc(C#N)cc3F)c3ccccc23)nc1N(Cc1ccc(C#N)cc1F)c1ccncc1`, the half-maximal inhibitory concentration (IC50) is 1100 nM.

For the molecule `COc1cnc(-c2nn(Cc3c(F)cc(F)cc3F)c3ccccc23)nc1N(Cc1c(F)cc(F)cc1F)c1ccncc1`, the IC50 was 890 nM.
